Laboratory results as given in US20120122727A1, “IN VITRO METHOD FOR PREDICTING WHETHER A COMPOUND IS GENOTOXIC IN VIVO” (priority 2009, published 2012).

System: primary mouse hepatocytes
Test: Gene expression (Affymetrix Mouse Genome 430 2.0) in primary mouse hepatocytes, true vs false GTX, 24 h and 48 h
Settings: 48 h; log2, corrected for vehicle control

SMILES: CN(C)N=O [DMN, Dimethylnitrosamine]
- Gene expression AF297615 average: 3.153
- Gene expression AF335325 average: 1.6857
- Gene expression AI594683 average: 3.7761
- Gene expression AI747296 average: −0.4333
- Gene expression AK005731 average: 4.617
- Gene expression AK007854 average: 0.8396
- Gene expression AK010447 average: −0.8634
- Gene expression AK010738 average: 1.343
- Gene expression AK014608 average: 1.391
- Gene expression AK017734 average: 1.0611
- Gene expression AK018383 average: 0.8246
- Gene expression AK019979 average: −1.11
- Gene expression AV095209 average: −0.454
- Gene expression AV141095 average: −0.8663
- Gene expression AV173869 average: −1.272
- Gene expression AV216768 average: −0.2641
- Gene expression AV219418 average: 4.5473
- Gene expression AV221299 average: −1.5693
- Gene expression AV246296 average: 0.9572
- Gene expression AV251625 average: 1.246
- Gene expression AV254764 average: 1.133
- Gene expression AV327248 average: 4.023
- Gene expression BB009155 average: 2.343
- Gene expression BB027848 average: 1.191
- Gene expression BB043558 average: 2.187
- Gene expression BB046347 average: 0.7743
- Gene expression BB140436 average: −1.281
- Gene expression BB204486 average: −0.3108
- Gene expression BB223872 average: 1.694
- Gene expression BB246912 average: −0.9806
- Gene expression BB275142 average: 1.162
- Gene expression BB458460 average: −0.6934
- Gene expression BB463610 average: 1.546
- Gene expression BB730977 average: −0.656
- Gene expression BB743970 average: 3.154
- Gene expression BB770528 average: 1.709
- Gene expression BB781615 average: 1.487
- Gene expression BC003284 average: 1.379
- Gene expression BC004827 average: −1.0689
- Gene expression BC005552 average: −0.5235
- Gene expression BC006713 average: 1.668
- Gene expression BC010318 average: −1.167
- Gene expression BC012247 average: 1.67
- Gene expression BC012955 average: −1.97
- Gene expression BC013893 average: 0.5487
- Gene expression BC017615 average: −2.7334
- Gene expression BC019379 average: −0.3602
- Gene expression BC019882 average: 1.494
- Gene expression BC021352 average: 3.512
- Gene expression BC022148 average: 1.8449
- Gene expression BC025169 average: −1.296
- Gene expression BC026131 average: −0.7571
- Gene expression BC027026 average: 2.571
- Gene expression BC027121 average: 2.075
- Gene expression BC027185 average: 1.462
- Gene expression BE956581 average: 3.033
- Gene expression BF719766 average: 1.2016
- Gene expression BG065754 average: 0.9953
- Gene expression BG066491 average: −0.9757
- Gene expression BG076151 average: 1.205
- Gene expression BG076333 average: −0.7995
- Gene expression BG797099 average: 1.704
- Gene expression BG967046 average: 1.1973
- Gene expression BI651416 average: 1.8588
- Gene expression BI966443 average: 3.295
- Gene expression BM198879 average: 1.096
- Gene expression BM200015 average: 1.16
- Gene expression BM230508 average: 1.54
- Gene expression BM936480 average: 0.7781
- Gene expression BQ174991 average: −0.28
- Gene expression L21027 average: −0.4472
- Gene expression NM_007556 average: −1.29
- Gene expression NM_007980 average: 0.3252
- Gene expression NM_007987 average: 1.665
- Gene expression NM_008522 average: 4.993
- Gene expression NM_008935 average: −1.382
- Gene expression NM_009897 average: 3.619
- Gene expression NM_011075 average: 2.401
- Gene expression NM_011176 average: 1.597
- Gene expression NM_011316 average: 2.0898
- Gene expression NM_012006 average: 1.6671
- Gene expression NM_013642 average: 0.3461
- Gene expression NM_013738 average: 1.562
- Gene expression NM_013929 average: 1.891
- Gene expression NM_018881 average: 0.9481
- Gene expression NM_019738 average: −2.9169
- Gene expression NM_030697 average: 2.5583
- Gene expression NM_053122 average: −2.3248
- Gene expression NM_134147 average: −1.579
- Gene expression NM_134188 average: −0.6378
- Gene expression X62701 average: 0.07157
